PubChem BioAssay AID248 (DTP/NCI, 2004)
“And” between values parts separate entries of the source, which are not always exact repeats. Equal values may be shown once. Toxic doses and inconclusive results are not listed. No stated cut-off is given here; in the data, active means T/C of 150% or more; inactive means T/C below 125%.

Test system: L1210 leukemia ip in BDF1 mice, survival T/C
Experiment: NCI In Vivo Anticancer Drug Screen. Data for tumor model L1210 Leukemia (intraperitoneal) in B6D2F1 (BDF1) mice
Conditions: endpoint: mean survival time, higher = longer survival
Summary of the method: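 Value reflects the ratio of survival in compound-treated mice to survival in vehicle-treated controls, with both groups carrying the same transplanted tumor.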

[1] = dose: 100.0 mg/kg/injection, schedule: Q01DX009 (ip), vehicle: Klucel (hydroxypropylcellulose) (HPC)
[2] = dose: 100.0 mg/kg/injection, schedule: Q04DX003 (ip), vehicle: Klucel (hydroxypropylcellulose) (HPC)
[3] = dose: 200.0 mg/kg/injection, schedule: Q01DX009 (ip), vehicle: Klucel (hydroxypropylcellulose) (HPC)
[4] = dose: 200.0 mg/kg/injection, schedule: Q04DX003 (ip), vehicle: Klucel (hydroxypropylcellulose) (HPC)
[5] = dose: 400.0 mg/kg/injection, schedule: Q04DX003 (ip), vehicle: Klucel (hydroxypropylcellulose) (HPC)
[6] = dose: 100.0 mg/kg/injection, schedule: Q01DX001 (ip), vehicle: saline
[7] = dose: 200.0 mg/kg/injection, schedule: Q01DX001 (ip), vehicle: saline
[8] = dose: 400.0 mg/kg/injection, schedule: Q01DX001 (ip), vehicle: saline
[9] = dose: 400.0 mg/kg/injection, schedule: Q01DX009 (ip), vehicle: Klucel (hydroxypropylcellulose) (HPC)
[10] = dose: 100.0 mg/kg/injection, schedule: Q04DX003 (ip), vehicle: saline with Tween-80
[11] = dose: 200.0 mg/kg/injection, schedule: Q04DX003 (ip), vehicle: saline with Tween-80
[12] = dose: 400.0 mg/kg/injection, schedule: Q04DX003 (ip), vehicle: saline with Tween-80
[13] = dose: 100.0 mg/kg/injection, schedule: Q01DX009 (ip), vehicle: saline with Tween-80
[14] = dose: 200.0 mg/kg/injection, schedule: Q01DX009 (ip), vehicle: saline with Tween-80
[15] = dose: 400.0 mg/kg/injection, schedule: Q01DX009 (ip), vehicle: saline with Tween-80

Measured: T/C

Cc1ccc(NC(=O)OCCOc2cc(C)c(Cl)c(C)c2)c([N+](=O)[O-])c1
inactive: dose: 50.0 mg/kg/injection, schedule: Q01DX009 (ip), vehicle: Klucel (hydroxypropylcellulose) (HPC) 95 % of control | [1] 95 % of control | [2] 90 % of control | [3] 91 % of control | [4] 97 % of control | [5] 92 % of control

NC(=O)/C=C/c1c[nH]c2nccnc12
inactive: dose: 1.56 mg/kg/injection, schedule: Q01DX009 (ip), vehicle: water 100 % of control | dose: 3.12 mg/kg/injection, schedule: Q01DX009 (ip), vehicle: water 95 % of control | dose: 6.25 mg/kg/injection, schedule: Q01DX009 (ip), vehicle: water 100 % of control | dose: 12.5 mg/kg/injection, schedule: Q01DX009 (ip), vehicle: water 103 % of control | dose: 25.0 mg/kg/injection, schedule: Q01DX009 (ip), vehicle: water 86 % of control and 90 % of control

CC(C)Nc1nc(N)nc2nc(-c3ccc(Cl)cc3)c(-c3ccc(Cl)cc3)nc12
inactive: [6] 100 % of control | [7] 113 % of control | [8] 107 % of control

NNC(=O)c1ccccc1Nc1ccc(Br)cc1
inactive: [1] 94 % of control | [2] 94 % of control | [3] 93 % of control | [4] 94 % of control | [9] 86 % of control | [5] 96 % of control

O=C(O)CN1C(=O)c2cccc([N+](=O)[O-])c2C1=O
inactive: [1] 100 % of control | [3] 100 % of control | [9] 101 % of control

CCCC(O)C(CC)CO (stereo not given)
inactive: dose: 100.0 mg/kg/injection, schedule: Q01DX009 (ip), vehicle: saline 102 % of control | dose: 200.0 mg/kg/injection, schedule: Q01DX009 (ip), vehicle: saline 100 % of control | dose: 400.0 mg/kg/injection, schedule: Q01DX009 (ip), vehicle: saline 104 % of control

CCCCOP(=O)(OCCCC)C(=O)N(CC)CC
inactive: [2] 112 % of control | [4] 101 % of control | [5] 93 % of control

COc1cc2ccc3c(c2cc1OC)C(=O)CNC3C (stereo not given)
inactive: dose: 12.5 mg/kg/injection, schedule: Q04DX003 (ip), vehicle: saline 100 % of control | dose: 50.0 mg/kg/injection, schedule: Q04DX003 (ip), vehicle: Klucel (hydroxypropylcellulose) (HPC) 114 % of control | [2] 98 % of control | [4] 106 % of control | [5] 101 % of control

O=C(Nc1cccc(F)c1)OCCOc1ccccc1
inactive: dose: 100.0 mg/kg/injection, schedule: Q01DX009 (ip), vehicle: gum acacia 93 % of control | dose: 200.0 mg/kg/injection, schedule: Q01DX009 (ip), vehicle: gum acacia 102 % of control | dose: 400.0 mg/kg/injection, schedule: Q01DX009 (ip), vehicle: gum acacia 96 % of control

COC1=NS(=O)(=O)N=C(N(C)C)O1
inactive: dose: 100.0 mg/kg/injection, schedule: Q01DX001 (ip), vehicle: Klucel (hydroxypropylcellulose) (HPC) 105 % of control | [2] 96 % of control | dose: 200.0 mg/kg/injection, schedule: Q01DX001 (ip), vehicle: Klucel (hydroxypropylcellulose) (HPC) 105 % of control | [4] 96 % of control | dose: 400.0 mg/kg/injection, schedule: Q01DX001 (ip), vehicle: Klucel (hydroxypropylcellulose) (HPC) 103 % of control | [5] 97 % of control

C/C(CCc1c[nH]c2ccccc12)=N\O
inactive: dose: 100.0 mg/kg/injection, schedule: Q04DX003 (sc), vehicle: olive oil, sesame oil, peanut oil 98 % of control | dose: 200.0 mg/kg/injection, schedule: Q04DX003 (sc), vehicle: olive oil, sesame oil, peanut oil 98 % of control | dose: 400.0 mg/kg/injection, schedule: Q04DX003 (sc), vehicle: olive oil, sesame oil, peanut oil 104 % of control

CCOC(=O)CN(C(=O)OCc1ccccc1)N(C)C(=O)OCc1ccccc1
inactive: dose: 25.0 mg/kg/injection, schedule: Q04DX003 (ip), vehicle: saline with Tween-80 101 % of control | dose: 50.0 mg/kg/injection, schedule: Q04DX003 (ip), vehicle: saline with Tween-80 94 % of control | [10] 101 % of control | [11] 97 % of control | [12] 101 % of control

Cc1cc(=O)c2cc(C(=O)c3ccccc3)ccc2[nH]1
inactive: [6] 101 % of control | [7] 98 % of control | [8] 107 % of control

Nc1ccc(Cc2ccc(N)cc2[N+](=O)[O-])c([N+](=O)[O-])c1
inactive: dose: 100.0 mg/kg/injection, schedule: Q01DX001 (ip), vehicle: carboxymethylcellulose (CMC) 98 % of control | dose: 200.0 mg/kg/injection, schedule: Q01DX001 (ip), vehicle: carboxymethylcellulose (CMC) 105 % of control | dose: 400.0 mg/kg/injection, schedule: Q01DX001 (ip), vehicle: carboxymethylcellulose (CMC) 100 % of control

CC(=O)SCC(C)CCl (stereo not given)
inactive: dose: 100.0 mg/kg/injection, schedule: Q04DX003 (ip), vehicle: saline 102 % of control | dose: 200.0 mg/kg/injection, schedule: Q04DX003 (ip), vehicle: saline 107 % of control | dose: 400.0 mg/kg/injection, schedule: Q04DX003 (ip), vehicle: saline 104 % of control

CCOC(=O)c1c(C)nc(C)c(C(=O)OCC)c1C
inactive: dose: 100.0 mg/kg/injection, schedule: Q01DX001 (ip), vehicle: saline with Tween-80 101 % of control | dose: 200.0 mg/kg/injection, schedule: Q01DX001 (ip), vehicle: saline with Tween-80 99 % of control | dose: 400.0 mg/kg/injection, schedule: Q01DX001 (ip), vehicle: saline with Tween-80 95 % of control

Cc1ccc(C(=O)N/N=C/c2c(O)ccc3ccccc23)cc1
inactive: dose: 100.0 mg/kg/injection, schedule: Q04DX002 (ip), vehicle: Klucel (hydroxypropylcellulose) (HPC) 89 % of control | dose: 200.0 mg/kg/injection, schedule: Q04DX002 (ip), vehicle: Klucel (hydroxypropylcellulose) (HPC) 89 % of control | dose: 400.0 mg/kg/injection, schedule: Q04DX002 (ip), vehicle: Klucel (hydroxypropylcellulose) (HPC) 96 % of control

COC1(c2ccccc2)C(c2ccccc2)=CC(c2ccccc2)=[N+]1[O-] (stereo not given)
inactive: dose: 75.0 mg/kg/injection, schedule: Q04DX003 (ip), vehicle: saline 92 % of control | dose: 150.0 mg/kg/injection, schedule: Q04DX003 (ip), vehicle: saline 89 % of control | dose: 300.0 mg/kg/injection, schedule: Q04DX003 (ip), vehicle: saline 91 % of control

COc1cc(C2N(c3ccccc3)CCN2c2ccccc2)cc(OC)c1OC
inactive: [1] 97 % of control | [2] 90 % of control | [4] 93 % of control | [9] 94 % of control | [5] 95 % of control

CCOC(=O)CNC(=O)Nc1ccc(S(N)(=O)=O)cc1
inactive: [13] 95 % of control | [14] 96 % of control | [15] 96 % of control

Cc1cccc[c]1[Sb]([c]1ccccc1C)[c]1ccccc1C
inactive: dose: 100.0 mg/kg/injection, schedule: Q04DX002 (ip), vehicle: saline with Tween-80 100 % of control | dose: 200.0 mg/kg/injection, schedule: Q04DX002 (ip), vehicle: saline with Tween-80 96 % of control | dose: 400.0 mg/kg/injection, schedule: Q04DX002 (ip), vehicle: saline with Tween-80 96 % of control

COCCOC(C)C(=O)C(O)S(=O)(=O)O (stereo not given)
inactive: dose: 500.0 mg/kg/injection, schedule: Q01DX Z (oral), vehicle: saline 86 % of control | dose: 1000.0 mg/kg/injection, schedule: Q01DX Z (oral), vehicle: saline 87 % of control

FC(F)(F)c1ccc2c(c1)N(CCCNCCN1CCOCC1)c1ccccc1S2
inactive: dose: 3.12 mg/kg/injection, schedule: Q01DX009 (ip), vehicle: saline 117 % of control | dose: 6.25 mg/kg/injection, schedule: Q01DX009 (ip), vehicle: saline 101 % of control | dose: 12.5 mg/kg/injection, schedule: Q01DX009 (ip), vehicle: saline 101 % of control | dose: 25.0 mg/kg/injection, schedule: Q01DX009 (ip), vehicle: saline 90 % of control | dose: 25.0 mg/kg/injection, schedule: Q04DX003 (ip), vehicle: saline 102 % of control | dose: 50.0 mg/kg/injection, schedule: Q04DX003 (ip), vehicle: saline 123 % of control

Cc1ccc(S(=O)(=O)N/N=C/c2ccccc2C)cc1
inactive: [13] 105 % of control | [10] 98 % of control | [14] 100 % of control | [11] 95 % of control | [15] 97 % of control | [12] 95 % of control

CCCC(=O)Nc1cc2c3c(c1)CCCN3CCC2
inactive: dose: 50.0 mg/kg/injection, schedule: Q01DX009 (ip), vehicle: saline with Tween-80 96 % of control
